Data on 8 compounds can be found in BindingDB's records for doi:10.1021/jm00065a013 (Washington University, 1993).

In the experiment the target is Type-2 angiotensin II receptor (Oryctolagus cuniculus). Kind of experiment: In vitro binding affinity at angiotensin II (type 2) receptor in rabbit uterus.

*1 amine or outer side, *2 acyl side, *3 side chain or, on linkers, in order; H or OH if unused. Where a SMILES comes first, the peptide text is derived from it. Bridges are numbered along the chain shown (N, C = ends). Roman numbers before positions name the chains, in order. [ ]: non-standard residue; d: D form. Pro(4R-SH) = O=C([C@@H]1C[C@@H](S[*:3])CN1[*:1])[*:2]; Pro(4S-SH) = O=C([C@@H]1C[C@H](S[*:3])CN1[*:1])[*:2]; hCys = N[C@@H](CCS)C(=O)O; Sar = CNCC(=O)O

In general, IC50 refers to the concentration that inhibits the measured activity by half. Take `CNCC(=O)N[C@@H](CCCNC(=N)N)C(=O)N[C@H]1CCSSCC[C@@H](C(=O)N[C@@H](Cc2cnc[nH]2)C(=O)N2CCC[C@H]2C(=O)N[C@@H](Cc2ccccc2)C(=O)O)NC(=O)[C@H](Cc2ccc(O)cc2)NC1=O` [2-({1-[2-{[11-[5-Guanidino-2-(2-methylamino-acetylamino)-pentanoylamino]-8-(4-hydroxy-benzyl)-7,10-dioxo-1,2-dithia-6,9-diaza-cyclotridecane-5-carbonyl]-amino}-3-(3H-imidazol-4-yl)-propionyl]-pyrrolidine-2-carbonyl}-amino)-3-phenyl-propionic acid] (H-[Sar]R[hCys]Y[hCys]HPF-OH; disulfide 3-5): the IC50 turned out to be 80 nM.

The compound `CNCC(=O)N[C@@H](CCCNC(=N)N)C(=O)N1C[C@@H]2C[C@H]1C(=O)N[C@@H](Cc1ccc(O)cc1)C(=O)N[C@H](C(=O)N[C@@H](Cc1cnc[nH]1)C(=O)N1CCC[C@H]1C(=O)N[C@@H](Cc1ccccc1)C(=O)O)CSS[C@H]1C[C@@H](C(=O)N[C@@H](Cc3ccc(O)cc3)C(=O)N[C@H](C(=O)N[C@@H](Cc3cnc[nH]3)C(=O)N3CCC[C@H]3C(=O)N[C@@H](Cc3ccccc3)C(=O)O)CSS2)N(C(=O)[C@H](CCCNC(=N)N)NC(=O)CNC)C1` [bis c[Sar1-Arg2-MPc3-Tyr4-Cys5-His6-Pro7-Phe8]antiparallel] (I: H-[Sar]R[Pro(4S-SH)]YCHPF-OH / II: H-[Sar]R[Pro(4S-SH)]YCHPF-OH; disulfide I:3-II:5, I:5-II:3) yielded an IC50 of 25 nM.

`CNCC(=O)N[C@@H](CCCNC(=N)N)C(=O)N1C[C@@H]2C[C@H]1C(=O)N[C@@H](Cc1ccc(O)cc1)C(=O)N[C@H](C(=O)N[C@@H](Cc1cnc[nH]1)C(=O)N1CCC[C@H]1C(=O)N[C@@H](Cc1ccccc1)C(=O)O)CSSC[C@H](C(=O)N[C@H](Cc1cnc[nH]1)C(=O)N1CCC[C@@H]1C(=O)N[C@H](Cc1ccccc1)C(=O)O)NC(=O)[C@@H](Cc1ccc(O)cc1)NC(=O)[C@H]1C[C@H](CN1C(=O)[C@@H](CCCNC(=N)N)NC(=O)CNC)SS2` [bis c[Sar1-Arg2-MPc3-Tyr4-Cys5-His6-Pro7-Phe8]parallel] came in with an IC50 of 23 nM.

For the compound `CNCC(=O)N[C@@H](CCCN=C(N)N)C(=O)N[C@H]1CSSC[C@@H](C(=O)N[C@@H](Cc2c[nH]cn2)C(=O)N2CCC[C@H]2C(=O)N[C@@H](Cc2ccccc2)C(=O)O)NC(=O)[C@H](Cc2ccc(O)cc2)NC(=O)[C@@H](NC(=O)[C@H](CCCN=C(N)N)NC(=O)CNC)CSSC[C@@H](C(=O)N[C@@H](Cc2c[nH]cn2)C(=O)N2CCC[C@H]2C(=O)N[C@@H](Cc2ccccc2)C(=O)O)NC(=O)[C@H](Cc2ccc(O)cc2)NC1=O` [bis-c[Sar1-Arg2-Cys3-Tyr4-Cys5-His6-Pro7-Phe8](antiparallel)] (I: H-[Sar]RCYCHPF-OH / II: H-[Sar]RCYCHPF-OH; disulfide I:3-II:5, I:5-II:3), the IC50 was 65 nM.

`CNCC(=O)N[C@@H](CCCN=C(N)N)C(=O)N[C@H]1CC(=O)NCCCC[C@@H](C(=O)N[C@@H](Cc2c[nH]cn2)C(=O)N2CCC[C@H]2C(=O)N[C@@H](Cc2ccccc2)C(=O)O)NC(=O)[C@H](Cc2ccc(O)cc2)NC1=O` [c[Sar1-Arg2-Asp3-Tyr4-Lys5-His6-Pro7-Phe8]] (H-[Sar]RDYKHPF-OH; lactam 3-5) displayed an IC50 of 86 nM.

`CNCC(=O)N[C@@H](CCCNC(=N)N)C(=O)N[C@H]1CSS[C@@H]2C[C@@H](C(=O)N[C@@H](Cc3cnc[nH]3)C(=O)N3CCC[C@H]3C(=O)N[C@@H](Cc3ccccc3)C(=O)O)N(C2)C(=O)[C@H](Cc2ccc(O)cc2)NC1=O` [c[Sar1-Arg2-Cys3-Tyr4-MPt5-His6-Pro7-Phe8]] (H-[Sar]RCY[Pro(4R-SH)]HPF-OH; disulfide 3-5) displayed an IC50 of 0.82 nM.

For `CNCC(=O)N[C@@H](CCCNC(=N)N)C(=O)N[C@H]1CCSS[C@H]2C[C@@H](C(=O)N[C@@H](Cc3cnc[nH]3)C(=O)N3CCC[C@H]3C(=O)N[C@@H](Cc3ccccc3)C(=O)O)N(C2)C(=O)[C@H](Cc2ccc(O)cc2)NC1=O` [c[Sar1-Arg2-Hcy3-Tyr4-MPc5-His6-Pro7-Phe8]] (H-[Sar]R[hCys]Y[Pro(4S-SH)]HPF-OH; disulfide 3-5), the IC50 amounted to 9.1 nM.

Take `CNCC(=O)N[C@@H](CCCNC(=N)N)C(=O)N1C[C@@H]2C[C@H]1C(=O)N[C@@H](Cc1ccc(O)cc1)C(=O)N[C@H](C(=O)N[C@@H](Cc1cnc[nH]1)C(=O)N1CCC[C@H]1C(=O)N[C@@H](Cc1ccccc1)C(=O)O)CSS2` [c[Sar1-Arg2-MPc3-Tyr4-Cys5-His6-Pro7-Phe8]] (H-[Sar]R[Pro(4S-SH)]YCHPF-OH; disulfide 3-5): the half-maximal inhibitory concentration (IC50) amounted to 12 nM.
